Results on 31 compounds are retold here after PMC12040169 (PLOS Biology, 2025).

A short description of the data set: in vitro. Particulars: human, hela cells, % viability.

Take `CN1CCN(C(=O)c2cnn(-c3ccccc3)c2NC(=O)c2ccc(F)cc2)CC1` [CBK265198]: the viability – broadly, a read-out of living cells in per cent, often relative to untreated cells – at 28.5 h, 10 µM worked out at 88.3%.

Take `CN1CCN(C(c2cccs2)c2nnnn2C(C)(C)C)CC1` (stereo not shown) [CBK141702]: the viability at 28.5 h, 10 µM stood at 91.9%.

As to `CCCC/C=C/c1cncc(Nc2cc(OC)c(OC)c(OC)c2)n1` [CBK065155], the viability at 28.5 h, 10 µM is 102%.

Take `O=C(NCCCCn1ccnc1)c1noc2c1CCCC2` [CBK283208]: the viability at 28.5 h, 10 µM turned out to be 93.9%.

For `CS(=O)(=O)N1CC2(CCN(Cc3cccc4cccnc34)CC2)c2ccccc21` [CBK136955], the viability at 28.5 h, 10 µM was 93.2%.

With `CCn1ncc(CN2CCCCCC2c2cc(C)no2)c1C` (stereo not shown) [CBK283008], the viability at 28.5 h, 10 µM came to 92.9%.

With `N#Cc1ccc(Cn2cnc(NC(=O)c3cnccn3)n2)cc1` [CBK305233], the viability at 28.5 h, 10 µM turned out to be 88.5%.

As to `O=C(N/N=C/c1cccc(Oc2ccccc2)c1)c1ccncc1` [CBK261955], the viability at 28.5 h, 10 µM was found to be 95.6%.

Regarding `CCC1CCCCN1Cc1c(O)ccc2c(=O)c(Oc3ccc(OC)cc3)c(C(F)(F)F)oc12` (stereo not shown) [CBK263727], the viability at 28.5 h, 10 µM was 98.8%.

As to `O=C(NC(c1ccc2ccccc2n1)c1cccs1)C1CCNCC1` (stereo not shown) [CBK148331], the viability at 28.5 h, 10 µM was determined as 98.9%.

`CCN(CC)CCNC(=O)c1ccc(NS(=O)(=O)c2cc(C(=O)O)ccc2OC)cc1` [CBK296962]: the viability at 28.5 h, 10 µM turned out to be 103%.

In the case of `CCc1nnc2sc(-c3ccccc3Br)nn12` [CBK269533], the viability at 28.5 h, 10 µM is 67.4%.

Turning to `O=C(O)c1ccsc1NS(=O)(=O)c1ccc(Oc2ccccc2)cc1` [CBK042259], the viability at 28.5 h, 10 µM is 89.8%.

For `CC1CCN(CCNC(=O)CCc2nc3ccc(Cl)cc3[nH]2)CC1` [CBK281599], the viability at 28.5 h, 10 µM worked out at 88.7%.

In the case of `COc1ccc(C(C)c2cc3c(cc2N)OCO3)cc1` (stereo not shown) [CBK200102T], the viability at 28.5 h, 10 µM came to 87.2%.

For `O=C(CSc1ccc2nnc(-c3ccccn3)n2n1)N1CCCCC1` [CBK287621], the viability at 28.5 h, 10 µM came out at 101%.

`CCOC(=O)c1noc2nc(C)n(Cc3nc(-c4ccccc4)oc3C)c(=O)c12` [CBK294400]: the viability at 28.5 h, 10 µM turned out to be 89.6%.

With `O=C(Oc1cccc(NC(=O)c2ccco2)c1)c1cccc(S(=O)(=O)N2CCOCC2)c1` [CBK262272], the viability at 28.5 h, 10 µM amounted to 97.2%.

Regarding `COc1ccc([C@@]2(O)CC[C@@H]3CN(C(=O)C4CCCC4)C[C@@H]32)cc1` [CBK285260], the viability at 28.5 h, 10 µM came out at 85%.

On to `O=c1[nH]c(=O)c2nnc(N/N=C\c3ccc(O)cc3)nc2[nH]1` [CBK263312], for which the viability at 28.5 h, 10 µM came to 94.1%.

For `O=C(Nc1ccccc1)c1ccc(COc2ccc3ccccc3c2)o1` [CBK265897], the viability at 28.5 h, 10 µM is 113%.

Regarding `Cc1nnc2sc(-c3ccc(NC(=S)NC(=O)c4ccc(-c5ccccc5[N+](=O)[O-])o4)cc3)nn12` [CBK266803], the viability at 28.5 h, 10 µM is 86.4%.

As for `Cc1cccnc1NC(=O)C(C)n1cc([N+](=O)[O-])cn1` (stereo not shown) [CBK268918], the viability at 28.5 h, 10 µM was found to be 104%.

Consider `O=[N+]([O-])c1ccc(CN2CCC(Oc3nccnc3OC3CCCCC3)CC2)cc1` [CBK082861T], for which the viability at 28.5 h, 10 µM came out at 90.4%.

In the case of `CC(=O)c1sccc1NS(=O)(=O)c1ccc2ccccc2c1` [CBK200042], the viability at 28.5 h, 10 µM stood at 89.5%.

On to `Cc1ncccc1OC1(C(=O)NCc2cn3c(n2)SCC3)CCNCC1` [CBK307649], for which the viability at 28.5 h, 10 µM is 103%.

For the compound `O=P(O)(CCc1ccccn1)CN1CCCCC1` [CBK262312], the viability at 28.5 h, 10 µM turned out to be 97.2%.

As to `CCOc1ccc(-c2nc(-c3cccc(NC(=O)c4ccccc4C(=O)O)c3)no2)cc1` [CBK299832], the viability at 28.5 h, 10 µM turned out to be 85.2%.

Take `N#CCCn1cc(C(=O)N2CCOCC2)c(-c2cccc(Cl)c2)n1` [CBK306208]: the viability at 28.5 h, 10 µM was 88.2%.

Consider `CC(Sc1ccccc1)C(=O)NCCCN1CCOCC1` (stereo not shown) [CBK269214], for which the viability at 28.5 h, 10 µM amounted to 106%.

For the compound `COc1cccc(NC(=O)N[C@H]2[C@H](O)[C@@H](N3CCOCC3)[C@@H]3OC[C@H]2O3)c1` [CBK288821], the viability at 28.5 h, 10 µM worked out at 109%.
